# Data: patent publication US8426458B2, “Hepatitis C Virus inhibitors” (priority 2009, dated 2013)
# Tested on: HCV 1b genotype replicon
# Test: HCV replicon assay (qRT-PCR or luciferase), genotype 1b
# Assay type: cell-based
# Details: Hepatitis C virus, read-out: Genotype-1b replicon EC50 Range
# Description: HCV replicon cell lines (kindly provided by R. Bartenschlager) isolated from colonies as described by Lohman et. al. (Lohman et al. (1999) Science 285: 110-113, expressly incorporated by reference in its entirety) and used for all experiments. The HCV replicon has the nucleic acid sequence set forth in EMBL Accession No.: AJ242651, the coding sequence of which is from nucleotides 1801 to 8406.
# The coding sequence of the published HCV replicon was synthesized and subsequently assembled in a modified plasmid pBR322 (Promega, Madison, Wis.) using standard molecular biology techniques. […]
# EC50 values of single agent compounds and combinations were determined by HCV RNA detection using quantitative RT-PCR, according to the manufacturer's instructions, with a TaqMan® One-Step RT-PCR Master Mix Reagents Kit (Cat# AB 4309169, Applied Biosystems) on an ABI Model 7500 thermocycler. The TaqMan primers used for detecting and quantifying HCV RNA were obtained from Integrated DNA Technologies. HCV RNA was normalized to GAPDH RNA levels in drug-treated cells, which is detected and quantified using the Human GAPDH Endogenous Control Mix (Applied Biosystems, AB 4310884E). […] Chemical agent cytotoxicity is evaluated using an MTS assay according to the manufacturer's directions (Promega). […]
smiles,measurement,value
CN(C)[C@H](C(=O)N1CCC[C@H]1c1nc(C(=O)N[C@H]2CC[C@H](NC(=O)c3c[nH]c([C@@H]4CCCN4C(=O)[C@@H](c4ccccc4)N(C)C)n3)CC2)c[nH]1)c1ccccc1 [Example 2],EC50,> 10 nM
